In experiment [1] the test system is AMPA receptor. The conditions noted are these: cited from earlier work.
Experiment [2] relates to sleep deprived non-human primates. Put plainly: Delayed Match To Sample (DMTS) task after sleep deprivation. The conditions noted are these: for Performance on DMTS Task (% Correct ± sem): Sleep Deprivation + BCM. It is filed as in vivo. From the text:
This task consists of a kind of “heads-up” display wherein the monkey interacts with a computer video display through motions of its hand. […] A fluorescent spot on the back of the monkey's hand is tracked by an overhead camera, and the coordinates of the hand position are proportionally translated into movement of a cursor on the video display. The animal responds to single Sample phase images by placing the cursor inside the image, then after a delay (during which the display is blanked) the animal must select the appropriate Match image (out of 2-6 different images) by placing the cursor inside the image identical to the Sample. Animal performance is scored as correct responses according to length of delay, and complexity of the trial (number of match images). Recent findings have shown that primate hippocampal neurons encode specific features of the task and stimulus, and that strength of the encoding correlates to behavioral success. Recording and on-line analysis of hippocampal neural activity allows tracking of the animal's cognitive performance under various experimental conditions. Two additional measures (eye and limb movement tracking) along with recording of movement sensitive neurons in hippocampus, putamen and motor cortex provide assessment of attention and ability to perform directed motor movements. Thus, it is possible to distinguish behavioral errors due to inattention or slow movements from those caused by inappropriate cognitive processing of the task information.
(§1) In practice, an animal is trained in the DMTS task such that his daily performance variable is relatively constant. This is judged as baseline performance. Once a stable baseline is established, the subject is deprived of sleep for variable periods in order to establish the effect of sleep deprivation on performance. The ability of an AMPA receptor modulator to ameliorate the decline in performance in the DMTS task is assessed by administered of the test compound prior to or during testing after sleep deprivation. If the test compound is administer prior to the beginning of the test session, then the effect of the drug is compared to performance following sleep deprivation on prior or subsequent days of testing. This protocol allows for the co-administration of a metabolic tracer (such as fluorodeoxyglucose labeled with fluorine-18; FDG) so that regional brain activity can be evaluated using Positron Emission Tomography (PET). Alternatively, an intravenous administration of the test compound midway into the DMTS session allows for a within-session evaluation of drug effect.

Experiment [3] shares this test system. Put plainly: Regional glucose utilization (FDG PET) in brain during DMTS task. It is filed as in vivo. Here is the method:
as §1
Positron Emission Tomography (PET) was used in order to examine the extent to which different brain regions were effected by sleep deprivation by measuring the uptake of ^18F-labeled fluorodeoxyglucose (FDG) into cells as a measure of metabolic activity. By this method it was observed that there was a general increase in metabolism across all brain regions on test days that followed sleep deprivation compared to normal baseline test days (FIG. 2).
The absolute values shown in FIG. 2 can be normalized to global brain metabolism (FIG. 3) by the following equation: (ROISD/GSD−ROIBL/GBL)/GBL where ROI mean region of interest, SD means under the condition of sleep deprivation, G means global and BL means under the condition of baseline performance.

Consider `COc1ccc(C(=O)N2CCCC2=O)cc1` [Aniracetam], for which the “Mean open time of the AMPA receptor channel” value in experiment [1] is reported as “increase the mean open time”. Further, in experiment [1] (mirrored in the field EPSP), the “Amplitude of the synaptic current” value was “increases the amplitude” and the “Duration of the synaptic current” value was “prolongs its duration”.

For `O=C(c1ccc2nccnc2c1)N1CCCCC1` [CX516, 1-(Quinoxaline-6-ylcarbonyl)piperidine], in experiment [2] (in vivo), the “Improving performance in DMTS task” value is “effective at improving performance”.

As for `O=C(c1ccc2nonc2c1)N1CCOCC1` [BCM, 1-(Benzofurazan-5-ylcarbonyl)morpholine], in experiment [3] (BCM following sleep deprivation, compared to vehicle administration, FIG. 2), the “Metabolism (absolute uptake of FDG) in all brain regions” value is “reduced compared to vehicle administration”. Moreover, in experiment [3] (BCM following sleep deprivation, FIG. 2), the “Metabolism (uptake of FDG) in several brain regions relative to normal” value is “near normal levels”. Moreover, the “Energy demand of the brain to perform the DMTS task (FDG uptake normalized to global brain metabolism)” value in experiment [3] (FIG. 3, normalized data) was “reduction in energy demand”. In addition, the “Effect on the performance deficit in DMTS task caused by sleep deprivation” value in experiment [2] (0.8 mg/kg (iv), single night of sleep deprivation) was “completely reversed the performance deficit”. Further, the “Performance compared to baseline” value in experiment [2] (Subject 1, 0.8 mg/kg (iv) after sleep deprivation) is reported as “enhanced performance compared to baseline”. Further, the “Performance on DMTS Task (% Correct ± sem)” value is 87 ± 2 % Correct in experiment [2] (Subject No. 1, 0.8 mg/kg (iv), baseline 81 ± 2, sleep deprivation 65 ± 1) and 83 ± 3 % Correct in experiment [2] (Subject No. 2, 0.8 mg/kg (iv), baseline 81 ± 2, sleep deprivation 67 ± 4). Further, the “Latencies to respond in the Match phase” value in experiment [2] (drug administration after sleep deprivation, FIG. 1) is listed as “not effected”.

The values are drawn from patent US20060276462A1, “Method of treating cognitive decline due to sleep deprivation and stress” (priority 2003, published 2006).
